Earlier results as cited in patent US20060089319A1, “Method for treatment and prevention of bacterial vaginosis” (priority 2004, published 2006).

Tested on: bacterial vaginosis

## Cc1ncc([N+](=O)[O-])n1CCO [metronidazole]
oral, high-risk women with previous preterm delivery, double-blind study by Morales et al.
  hospital admissions for preterm labor, preterm births, PROM, and low-birth-weight infants: fewer
oral, pregnant women, two separate studies
  long-term suppression of bacterial vaginosis flora (duration): 2-3 months
Pregnant women, numerous studies
  treatment of bacterial vaginosis in pregnant women, thereby preventing preterm delivery: effective treatment
